Measured values taken from US5318967A, “2,3,3a,4,5,9b-hexahydro-1H-benzo[e]indole derivatives” (priority 1991, dated 1994).

Each compound was assayed against acetylcholine esterase (Homo sapiens, UniProt P22303) (assay: biochemical). Conditions: read-out: IC 50 for acetylcholine esterase inhibition.
From the text: The determination of the acetylcholine esterase inhibition was effected according to the method of Ellmann et al., Biochem. Pharmacol. 7 (1961) 88, and/or according to the method of Johnson et al., Analytical Biochemistry 64 (1975), 229.

acetylcholine esterase, sequence (P22303 32-614): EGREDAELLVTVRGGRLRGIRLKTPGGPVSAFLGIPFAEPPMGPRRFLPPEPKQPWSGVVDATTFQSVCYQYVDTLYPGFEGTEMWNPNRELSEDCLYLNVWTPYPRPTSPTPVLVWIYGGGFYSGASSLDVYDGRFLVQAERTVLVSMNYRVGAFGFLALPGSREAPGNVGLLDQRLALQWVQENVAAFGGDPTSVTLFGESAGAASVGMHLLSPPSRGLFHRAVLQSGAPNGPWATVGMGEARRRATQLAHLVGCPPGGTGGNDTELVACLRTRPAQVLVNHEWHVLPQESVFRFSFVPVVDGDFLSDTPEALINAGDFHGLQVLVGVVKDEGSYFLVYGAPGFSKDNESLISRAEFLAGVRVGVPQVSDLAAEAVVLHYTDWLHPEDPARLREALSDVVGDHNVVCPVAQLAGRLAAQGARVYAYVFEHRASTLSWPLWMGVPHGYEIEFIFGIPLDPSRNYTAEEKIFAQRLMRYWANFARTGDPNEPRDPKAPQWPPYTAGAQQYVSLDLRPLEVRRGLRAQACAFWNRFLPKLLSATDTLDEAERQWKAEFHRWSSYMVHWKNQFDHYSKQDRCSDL

| SMILES | IC50 |
| --- | --- |
| CN(C)C(=O)Oc1cccc2c1CC[C@H]1[C@@H]2CCN1CCCCCCN1Cc2ccccc2C1=O (racemic) [rac-3-[6-(1-oxo-isoindolin-2-yl)-hexyl]-cis-2,3,3a,4,5,9b-hexahydro-1H-benzo[e]indol-6-yl dimethylcarbamate] | 2.9 nM |
| CN(C)C(=O)Oc1cccc2c1CC[C@H]1[C@@H]2CCN1CCN1CCCCC1 (racemic) [rac-3-(2-piperidin-1-yl-ethyl)-cis-2,3,3a,4,5,9b-hexahydro-1H-benzo[e]indol-6-yl dimethylcarbamate] | 31 nM |
| CN(C)C(=O)Oc1cccc2c1CC[C@H]1[C@@H]2CCN1CCCC(=O)c1ccc(F)cc1 (racemic) [rac-3-[3-(4-fluoro-benzoyl)-propyl]-cis-2,3,3a,4,5,9b-hexahydro-1H-benzo[e]indol-6-yl dimethylcarbamate] | 6.8 nM |
| CN(C)C(=O)Oc1cccc2c1CC[C@H]1[C@@H]2CCN1CCCC1CCCCC1 (racemic) [rac-3-(3-cyclohexylpropyl)-cis-2,3,3a,4,5,9b-hexahydro-1H-benzo[e]indol-6-yl dimethylcarbamate] | 19 nM |
| CN(C)C(=O)Oc1cccc2c1CC[C@H]1[C@@H]2CCN1C1CCCC1 (racemic) [rac-cis-3-cyclopentyl-2,3,3a,4,5,9b-hexahydro-1H-benzo[e]indol-6-yl dimethylcarbamate] | 95 nM |
| COc1ccc(C(=O)CCCCN2CC[C@@H]3c4cccc(OC(=O)N(C)C)c4CC[C@@H]32)cc1OC (racemic) [rac-3-[4-(3,4-Dimethoxy-benzoyl)-butyl]-cis-2,3,3a,4,5,9b-hexahydro-1H-benzo[e]indol-6-yl dimethylcarbamate] | 1.4 nM |
| CN(C)C(=O)Oc1cccc2c1CC[C@@H]1[C@H]2CCN1CCCCCCNC(=O)c1ccccc1 (relative stereo) [rac-3-(6-benzoylamino-hexyl)-2,3,3a,4,5,9b-hexahydro-1H-cis-benzo[e]indol-6-yl-dimethylcarbamate] | 11 nM |
| CNC(=O)Oc1cccc2c1CC[C@H]1[C@@H]2CCN1CCC1CCCCC1 (single isomer, unassigned) [(+)-cis-3-(2-cyclohexylethyl)-2,3,3a,4,5,9b-hexahydro-1H-benzo[e]indol-6-yl methylcarbamate] | 18 nM |
| CN(C)C(=O)Oc1cccc2c1CC[C@H]1[C@@H]2CCN1CCCN1CCOCC1 (racemic) [rac-3-(3-morpholin-4-yl-propyl)-cis-2,3,3a,4,5,9b-hexahydro-1H-benzo[e]indol-6-yl dimethylcarbamate] | 63 nM |
| CN(C)C(=O)Oc1cccc2c1CC[C@H]1[C@@H]2CCN1CCCC1CCCC1 (racemic) [rac-cis-3-(3-cyclopentyl-propyl)-2,3,3a,4,5,9b-hexahydro-1H-benzo[e]indol-6-yl dimethylcarbamate] | 14 nM |
| CCCCNC(=O)Oc1cccc2c1CC[C@H]1[C@@H]2CCN1CCC1CCCCC1 (racemic) [rac-cis-3-(2-cyclohexylethyl)-2,3,3a,4,5,9b-hexahydro-1H-benzo[e]indol-6-yl butylcarbamate] | 793 nM |
| CN(C)C(=O)Oc1cccc2c1CC[C@H]1[C@@H]2CCN1CCCCC(=O)c1ccccc1 (racemic) [rac-3-(4-benzoyl-butyl)-cis-2,3,3a,4,5,9b-hexahydro-1H-benzo[e]indol-6-yl dimethylcarbamate] | 612 nM |
| CN(C)C(=O)Oc1cccc2c1CC[C@@H]1[C@H]2CCN1CCCCCN1C(=O)[C@H]2CCCC[C@H]2C1=O (relative stereo) [rac-3-[5-(1,3-dioxo-octahydro-cis-isoindol-2-yl)pentyl]-2,3,3a,4,5,9b-hexahydro-1H-cis-benzo[e]indol-6-yl dimethylcarbamate] | 7.8 nM |
| CN(C)C(=O)Oc1cccc2c1CC[C@H]1[C@H]2CCN1CCC1CCCCC1 (single isomer, unassigned) [(+)-trans-3-(2-cyclohexylethyl)-2,3,3a,4,5,9b-hexahydro-1H-benzo[e]indol-6-yl dimethylcarbamate] | 22 nM |
| CCCN1CC[C@@H]2c3cccc(OC(=O)N(C)C)c3CC[C@@H]21 (racemic) [rac-3-propyl-cis-2,3,3a,4,5,9b-hexahydro-1H-benzo[e]indol-6-yl dimethylcarbamate] | 40 nM |
| CN(C)C(=O)Oc1cccc2c1CC[C@H]1[C@@H]2CCN1CCCCCCN1C(=O)CC(C)(C)CC1=O (racemic) [rac-3-[6-(4,4-dimethyl-2,6-dioxo-piperidin-1-yl)-hexyl]-cis-2,3,3a,4,5,9b-hexahydro-1H-benzo[e]indol-6-yl dimethylcarbamate] | 8 nM |
| CN(C)C(=O)Oc1cccc2c1CC[C@H]1[C@@H]2CCN1CCCCN1Cc2ccccc2C1=O (racemic) [rac-3-[4-(1-oxo-isoindolin-2-yl)-butyl]-cis-2,3,3a,4,5,9b-hexahydro-1H-benzo[e]indol-6-yl dimethylcarbamate] | 8.6 nM |
| CCCNC(=O)Oc1cccc2c1CC[C@H]1[C@@H]2CCN1CCC1CCCCC1 (single isomer, unassigned) [(+)-cis-3-(2-cyclohexylethyl)-2,3,3a,4,5,9b-hexahydro-1H-benzo[e]indol-6-yl propylcarbamate] | 2.6 nM |
| CCN(C)C(=O)Oc1cccc2c1CC[C@H]1[C@@H]2CCN1CCC1CCCCC1 (single isomer, unassigned) [(+)-cis-3-(2-cyclohexylethyl)-2,3,3a,4,5,9b-hexahydro-1H-benzo[e]indol-6-yl ethylmethylcarbamate] | 3.5 nM |
| CN(C)C(=O)Oc1cccc2c1CC[C@H]1[C@@H]2CCN1CCCC(=O)c1ccccc1 (racemic) [rac-3-(3-benzoyl-propyl)-cis-2,3,3a,4,5,9b-hexahydro-1H-benzo[e]indol-6-yl dimethylcarbamate] | 8.3 nM |
| CN(C)C(=O)Oc1cccc2c1CC[C@@H]1[C@H]2CCN1CCCCCN (relative stereo) [rac-3-(5-aminopentyl)-2,3,3a,4,5,9b-hexahydro-1H-cis-benzo[e]indol-6-yl dimethylcarbamate] | 111 nM |
| CN(C)C(=O)Oc1cccc2c1CC[C@H]1[C@@H]2CCN1CC1CCCCC1 (racemic) [rac-3-cyclohexylmethyl-cis-2,3,3a,4,5,9b-hexahydro-1H-benzo[e]indol-6-yl dimethylcarbamate] | 36 nM |
| CN(C)C(=O)Oc1cccc2c1CC[C@H]1[C@@H]2CCN1CCC1CCCC1 (racemic) [rac-3-(2-cyclopentylethyl)-cis-2,3,3a,4,5,9b-hexahydro-1H-benzo[e]indol-6-yl dimethylcarbamate] | 30 nM |
| CN(C)C(=O)Oc1cccc2c1CC[C@H]1[C@@H]2CCN1CCCCCN1Cc2ccccc2C1=O (racemic) [rac-3-[5-(1-oxo-isoindolin-2-yl)-pentyl]-cis-2,3,3a,4,5,9b-hexahydro-1H-benzo[e]indol-6-yl dimethylcarbamate] | 4.5 nM |
| CN(C)C(=O)Oc1cccc2c1CC[C@H]1[C@@H]2CCN1CCCCCN1C(=O)c2ccccc2C1=O (racemic) [rac-3-[5-(1,3-dioxo-isoindolin-2-yl)-pentyl]-cis-2,3,3a,4,5,9b-hexahydro-1H-benzo[e]indol-6-yl dimethylcarbamate] | 2.7 nM |
| CN(C)C(=O)Oc1cccc2c1CC[C@H]1[C@@H]2CCN1CCCc1ccccc1 (racemic) [rac-3-(3-phenylpropyl)-cis-2,3,3a,4,5,9b-hexahydro-1H-benzo[e]indol-6-yl dimethylcarbamate] | 36 nM |
